Data as given in patent US20230122249A1, “1H-PYRAZOLO[4,3-d]PYRIMIDINE COMPOUNDS AS TOLL-LIKE RECEPTOR 7 (TLR7) AGONISTS” (BRISTOL-MYERS SQUIBB COMPANY, priority 2020, published 2023).

target: T1, human TLR7 (Homo sapiens, UniProt Q9NYK1); experiment: Human TLR7 agonist activity (hTLR7 reporter) assay in HEK-Blue TLR7 cells, SEAP readout; type: cell-based; conditions: 18 h treatment, average where assay repeated
T1 construct: host or cells: HEK-Blue TLR7 cells (engineered human embryonic kidney cells)
T1 sequence (Q9NYK1 27-1049): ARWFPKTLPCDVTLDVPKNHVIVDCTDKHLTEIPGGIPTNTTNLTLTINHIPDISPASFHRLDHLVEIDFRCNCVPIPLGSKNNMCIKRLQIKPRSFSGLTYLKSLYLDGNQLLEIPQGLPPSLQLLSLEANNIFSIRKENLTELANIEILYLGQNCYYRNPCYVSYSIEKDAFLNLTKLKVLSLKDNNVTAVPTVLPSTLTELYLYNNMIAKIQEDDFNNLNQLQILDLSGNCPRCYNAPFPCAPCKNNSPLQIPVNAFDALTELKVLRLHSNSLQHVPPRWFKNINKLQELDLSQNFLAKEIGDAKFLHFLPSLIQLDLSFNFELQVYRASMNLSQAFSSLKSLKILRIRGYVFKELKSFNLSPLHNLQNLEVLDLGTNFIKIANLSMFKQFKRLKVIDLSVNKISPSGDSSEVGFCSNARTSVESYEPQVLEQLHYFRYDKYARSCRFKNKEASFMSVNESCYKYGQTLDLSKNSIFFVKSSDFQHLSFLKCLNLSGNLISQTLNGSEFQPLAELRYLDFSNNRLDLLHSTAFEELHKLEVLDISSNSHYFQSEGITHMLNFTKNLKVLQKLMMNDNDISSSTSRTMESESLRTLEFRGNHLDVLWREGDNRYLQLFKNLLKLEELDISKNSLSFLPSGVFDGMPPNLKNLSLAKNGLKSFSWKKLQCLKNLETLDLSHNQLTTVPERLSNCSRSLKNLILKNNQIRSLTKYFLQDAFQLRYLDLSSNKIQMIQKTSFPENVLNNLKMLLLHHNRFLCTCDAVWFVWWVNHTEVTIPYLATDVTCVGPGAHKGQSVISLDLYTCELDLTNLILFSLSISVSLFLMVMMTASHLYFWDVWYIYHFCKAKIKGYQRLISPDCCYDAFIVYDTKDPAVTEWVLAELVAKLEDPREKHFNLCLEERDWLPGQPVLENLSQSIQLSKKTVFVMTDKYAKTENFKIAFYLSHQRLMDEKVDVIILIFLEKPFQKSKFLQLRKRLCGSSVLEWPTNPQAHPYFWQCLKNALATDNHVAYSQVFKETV
Protocol: This procedure describes a method for assaying human TLR7 (hTLR7) agonist activity of the compounds disclosed in this specification.
HEK-Blue™ TLR7 cells were added to each well of a 384-well tissue-culture plate (15,000 cells per well) and incubated 16-18 h at 37° C., 5% CO2. Compounds (100 nl) were dispensed into wells containing the HEK-Blue™ TLR cells and the treated cells were incubated at 37° C., 5% CO2. After 18 h treatment ten microliters of freshly-prepared Quanti-Blue™ reagent (Invivogen) was added to each well, incubated for 30 min (37° C., 5% CO2) and SEAP levels measured using an Envision plate reader (OD=620 nm). The half maximal effective concentration values (EC50; compound concentration which induced a response halfway between the assay baseline and maximum) were calculated.

| Structure (SMILES) | EC50 [µM] |
| --- | --- |
| COc1cc(C(=O)N2C[C@@H]3C[C@H]2CN3)ccc1Cn1ncc2nc(N)nc(NCC3CC4(CC4)C3)c21 [Compound 178] | 0.365 |
| COc1cc(C(=O)N2C[C@@H]3C[C@H]2CN3C)ccc1Cn1ncc2nc(N)nc(NCC3CC4(CC4)C3)c21 [Compound 179] | 0.0365 |
| COc1cc(C(=O)N2CC3(CNC3)C2)ccc1Cn1ncc2nc(N)nc(NCC3CC4(CCC4)C3)c21 [Compound 180] | 0.728 |
| COc1cc(C(=O)N2C[C@@H]3C[C@H]2CN3)ccc1Cn1ncc2nc(N)nc(NCC3CC4(CCC4)C3)c21 [Compound 181] | 0.254 |
| COc1cc(C(=O)N2C[C@H]3CNC[C@H]3C2)ccc1Cn1ncc2nc(N)nc(NCC3CC4(CCC4)C3)c21 [Compound 182] | 0.394 |
| COc1cc(CN2CCN(CCO)CC2)ccc1Cn1ncc2nc(N)nc(NCC3CC4(CC4)C3)c21 [Compound 183] | 0.0315 |
| COc1cc(C(=O)N2CCN(CCO)CC2)ccc1Cn1ncc2nc(N)nc(NCC3CC4(CC4)C3)c21 [Compound 184] | 0.0675 |
| COc1cc(CN2CCN(CCO)CC2)ccc1Cn1ncc2nc(N)nc(NCC3CC4(C3)CC(F)(F)C4)c21 [Compound 185] | 0.482 |
| COc1cc(CN(C)C)ccc1Cn1ncc2nc(N)nc(NCC3CC4(C3)CC(F)(F)C4)c21 [Compound 186] | 0.95 |
| COc1cc(C(=O)N2CC3(CN(C)C3)C2)ccc1Cn1ncc2nc(N)nc(NCC3CC4(C3)CC(F)(F)C4)c21 [Compound 187] | 2.31 |
| COc1cc(C(=O)N2C[C@H]3CN(C)C[C@H]3C2)ccc1Cn1ncc2nc(N)nc(NCC3CC4(C3)CC(F)(F)C4)c21 [Compound 188] | 0.81 |
| COc1cc(C(=O)N2C[C@H]3C[C@@H]2CN3C)ccc1Cn1ncc2nc(N)nc(NCC3CC4(C3)CC(F)(F)C4)c21 [Compound 189] | 0.78 |
| COc1cc(C(=O)NC2CN(C)C2)ccc1Cn1ncc2nc(N)nc(NCC3CC4(CC4)C3)c21 [Compound 190] | 0.315 |
| COc1cc(C(=O)N[C@H]2CCN(C)C2)ccc1Cn1ncc2nc(N)nc(NCC3CC4(CC4)C3)c21 [Compound 192] | 0.0473 |
| COc1cc(C(=O)N[C@@H]2CCN(C)C2)ccc1Cn1ncc2nc(N)nc(NCC3CC4(CC4)C3)c21 [Compound 193] | 0.0481 |
| COc1cc(C(=O)NC2CCN(C(C)C)CC2)ccc1Cn1ncc2nc(N)nc(NCC3CC4(CC4)C3)c21 [Compound 194] | 0.104 |
| COc1cc(C(=O)NC2CCN(C3CC3)CC2)ccc1Cn1ncc2nc(N)nc(NCC3CC4(CC4)C3)c21 [Compound 195] | 0.193 |

test system: CD69 in human whole blood; experiment: Induction of CD69 in human whole blood (hWB); type: cell-based; conditions: heparinized human whole blood, 17 h, CD69 surface staining; 100% set to 1 uM resiquimod; average where assay repeated
Protocol: The induction of Type I interferon (IFN) MX-1 genes and the B-cell activation marker CD69 are downstream events that occur upon activation of the TLR7 pathway. The following is a human whole blood assay that measures their induction in response to a TLR7 agonist.
Heparinized human whole blood was harvested from human subjects and treated with test TLR7 agonist compounds at 1 mM. The blood was diluted with RPMI 1640 media and Echo was used to predot 10 nL per well giving a final concentration of 1 uM (10 nL in 10 uL of blood). After mixing on a shaker for 30 sec, the plates were covered and placed in a 37° C. chamber for o/n=17 hrs. Fixing/lysis buffer was prepared (5×->1×in H2O, warm at 37° C.; Cat# BD 558049) and kept the perm buffer (on ice) for later use.
For surface markers staining (CD69): prepared surface Abs: 0.045 ul hCD14-FITC (ThermoFisher Cat # MHCD1401)+0.6 ul hCD19-ef450 (ThermoFisher Cat #48-0198-42)+1.5 ul hCD69-PE (cat# BD555531)+0.855 ul FACS buffer. Added 3 ul/well, spin1000 rpm for 1 min and mixed on shaker for 30 sec, put on ice for 30 mins. Stop stimulation after 30 minutes with 70 uL of prewarmed 1×fix/lysis buffer and use Feliex mate to resuspend (15 times, change tips for each plate) and incubate at 37° C. for 10 minutes.
Centrifuge at 2000 rpm for 5 minutes aspirate with HCS plate washer, mix on shaker for 30 sec and then wash with 70 uL in dPBS and pelleted 2 xs (2000 rpm for 5 min) and 50 ul wash in FACS buffer pelleted 1 xs(2000 rpm for 5 min). Mix on shaker for 30 sec. For Intracellular markers staining (MX-1): Add 50 ul of BD Perm buffer III and mix on shaker for 30 sec. Incubate on ice for 30 minutes (in the dark). Wash with 50 uL of FACS buffer 2×(spin @2300 rpm×5 min after perm) followed by mixing on shaker for 30 sec. Resuspended in 20 ul of FACS buffer containing MX1 antibody ( )(4812)-Alexa 647: Novus Biologicals #NBP2-43704AF647) 20 ul FACS bf+0.8 ul hlgG+0.04 ul MX-1. Spin 1000 rpm for 1 min, mix on shaker for 30 se and the samples were incubated at RT in the dark for 45 minutes followed by washing 2×FACS buffer (spin @2300 rpm×5 min after perm). Resuspend 20 ul (35 uL total per well) of FACS buffer and cover with foil and place in 4° C. to read the following day. Plates were read on iQuePlus. The results were loaded into toolset and […] curves are generated in curve master. The y-axis 100% is set to 1 uM of resiquimod.

| Structure (SMILES) | EC50 [µM] |
| --- | --- |
| COc1cc(C(=O)N2C[C@@H]3C[C@H]2CN3)ccc1Cn1ncc2nc(N)nc(NCC3CC4(CC4)C3)c21 [Compound 178] | 0.156 |
| COc1cc(C(=O)N2C[C@@H]3C[C@H]2CN3C)ccc1Cn1ncc2nc(N)nc(NCC3CC4(CC4)C3)c21 [Compound 179] | 0.0131 |
| COc1cc(C(=O)N2CC3(CNC3)C2)ccc1Cn1ncc2nc(N)nc(NCC3CC4(CCC4)C3)c21 [Compound 180] | 0.363 |
| COc1cc(C(=O)N2C[C@@H]3C[C@H]2CN3)ccc1Cn1ncc2nc(N)nc(NCC3CC4(CCC4)C3)c21 [Compound 181] | 0.11 |
| COc1cc(C(=O)N2C[C@H]3CNC[C@H]3C2)ccc1Cn1ncc2nc(N)nc(NCC3CC4(CCC4)C3)c21 [Compound 182] | 0.202 |
| COc1cc(CN2CCN(CCO)CC2)ccc1Cn1ncc2nc(N)nc(NCC3CC4(CC4)C3)c21 [Compound 183] | 0.0485 |
| COc1cc(C(=O)N2CCN(CCO)CC2)ccc1Cn1ncc2nc(N)nc(NCC3CC4(CC4)C3)c21 [Compound 184] | 0.11 |
| COc1cc(CN2CCN(CCO)CC2)ccc1Cn1ncc2nc(N)nc(NCC3CC4(C3)CC(F)(F)C4)c21 [Compound 185] | 0.117 |
| COc1cc(CN(C)C)ccc1Cn1ncc2nc(N)nc(NCC3CC4(C3)CC(F)(F)C4)c21 [Compound 186] | 0.783 |
| COc1cc(C(=O)N2CC3(CN(C)C3)C2)ccc1Cn1ncc2nc(N)nc(NCC3CC4(C3)CC(F)(F)C4)c21 [Compound 187] | 0.419 |
| COc1cc(C(=O)N2C[C@H]3CN(C)C[C@H]3C2)ccc1Cn1ncc2nc(N)nc(NCC3CC4(C3)CC(F)(F)C4)c21 [Compound 188] | 0.493 |
| COc1cc(C(=O)N2C[C@H]3C[C@@H]2CN3C)ccc1Cn1ncc2nc(N)nc(NCC3CC4(C3)CC(F)(F)C4)c21 [Compound 189] | 1 |
| COc1cc(C(=O)NC2CN(C)C2)ccc1Cn1ncc2nc(N)nc(NCC3CC4(CC4)C3)c21 [Compound 190] | 0.169 |
| COc1cc(C(=O)N[C@H]2CCN(C)C2)ccc1Cn1ncc2nc(N)nc(NCC3CC4(CC4)C3)c21 [Compound 192] | 0.0219 |
| COc1cc(C(=O)N[C@@H]2CCN(C)C2)ccc1Cn1ncc2nc(N)nc(NCC3CC4(CC4)C3)c21 [Compound 193] | 0.0152 |
| COc1cc(C(=O)NC2CCN(C(C)C)CC2)ccc1Cn1ncc2nc(N)nc(NCC3CC4(CC4)C3)c21 [Compound 194] | 0.101 |
| COc1cc(C(=O)NC2CCN(C3CC3)CC2)ccc1Cn1ncc2nc(N)nc(NCC3CC4(CC4)C3)c21 [Compound 195] | 0.411 |
